# Test results taken from article PMC8273696, “Colombian Scorpion Centruroides margaritatus: Purification and Characterization of a Gamma Potassium Toxin with Full-Block Activity on the hERG1 Channel” (Toxins, 2021).
# “Also recorded” adds a separate entry of the source. Like-named read-outs stand apart in the source and are kept apart here. Positions of bridges follow the written chain, without caps; N, C: chain ends. No end group written: not given here.
# What was measured:
# [1] = system: ERG potassium channels (hERG1); conditions: ref [22],[46]; cited from earlier work
# Text: Scorpion venom is a mixture of proteins, peptides and enzymes, carbohydrates, free amines, nucleotides, lipids, and other low molecular weight components with unknown function. Peptides that act as ion channel modulators are the main agents responsible for the venom toxicity and they have been classified according to their targets into: sodium scorpion toxins (NaScTx), with molecular masses between 6–8 kDa, potassium scorpion toxins (KScTx), with molecular masses between 3–5 kDa, and calcium scorpion toxins (CaScTx) that comprise peptides acting on voltage gated calcium channel ... || The effect of the CmERG1 toxin was evaluated on the hERG1 channel by means of electrophysiology experiments. […] Dose response curves were calculated by application of toxin concentrations from 1 nM to 1 µM. […] This feature is different from the other γKTxs, like CnERG1, ... || Two models were proposed to explain the uncommon feature of the γKTxs that comprises a partial current block, despite the saturation concentration, and the acceleration of the closing process due to the toxin preference for the channel closed state. In one kinetic model proposed by Hill and collaborators, first the toxin binds to the channel in a toxin channel encounter complex permissive to ion flow (TC*) and then passes to the blocked toxin-channel complex (TC). […]
# hERG1 channel [2] = target: T1, hERG1 channel (Homo sapiens, UniProt Q12809); assay: Patch-clamp, voltage dependence of (steady state) inactivation of hERG1; assay type: cell-based; conditions: 4 nM, n = 5
# T1 construct: expressed in transfected cells
# T1 sequence (Q12809 whole entry): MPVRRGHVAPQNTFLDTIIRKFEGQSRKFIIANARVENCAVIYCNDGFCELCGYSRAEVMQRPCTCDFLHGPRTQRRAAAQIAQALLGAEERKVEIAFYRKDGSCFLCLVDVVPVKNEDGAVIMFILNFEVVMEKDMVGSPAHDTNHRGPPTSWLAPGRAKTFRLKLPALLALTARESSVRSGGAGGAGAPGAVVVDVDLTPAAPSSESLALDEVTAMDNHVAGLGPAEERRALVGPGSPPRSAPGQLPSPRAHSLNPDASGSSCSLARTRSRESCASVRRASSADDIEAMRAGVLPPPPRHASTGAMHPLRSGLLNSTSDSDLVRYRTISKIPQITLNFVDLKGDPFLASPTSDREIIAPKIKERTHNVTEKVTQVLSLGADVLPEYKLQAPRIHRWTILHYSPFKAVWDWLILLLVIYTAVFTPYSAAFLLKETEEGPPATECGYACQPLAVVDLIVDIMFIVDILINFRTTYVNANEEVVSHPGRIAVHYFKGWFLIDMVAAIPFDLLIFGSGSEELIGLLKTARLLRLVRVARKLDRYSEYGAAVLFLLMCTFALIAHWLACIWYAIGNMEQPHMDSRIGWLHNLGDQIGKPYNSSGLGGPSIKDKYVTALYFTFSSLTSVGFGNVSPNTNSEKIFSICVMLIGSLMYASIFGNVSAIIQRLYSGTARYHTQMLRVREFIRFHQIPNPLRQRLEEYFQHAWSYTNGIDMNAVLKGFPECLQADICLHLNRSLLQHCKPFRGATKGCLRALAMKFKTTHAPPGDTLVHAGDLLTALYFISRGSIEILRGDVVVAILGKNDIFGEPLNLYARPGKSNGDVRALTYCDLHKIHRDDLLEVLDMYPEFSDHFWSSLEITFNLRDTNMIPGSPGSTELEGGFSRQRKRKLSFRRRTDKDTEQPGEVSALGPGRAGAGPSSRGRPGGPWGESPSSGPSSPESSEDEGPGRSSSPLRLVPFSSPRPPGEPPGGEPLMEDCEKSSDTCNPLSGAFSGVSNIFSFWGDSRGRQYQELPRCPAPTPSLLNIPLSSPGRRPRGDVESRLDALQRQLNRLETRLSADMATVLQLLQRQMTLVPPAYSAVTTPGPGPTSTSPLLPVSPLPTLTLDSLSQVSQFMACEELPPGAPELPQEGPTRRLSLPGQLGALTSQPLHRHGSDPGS
# Description: Figure 4 Effect of CmERG1 at 4 nM on the voltage dependence of activation and inactivation. (A) Stimulation protocol used to study the voltage dependence of activation. Tail currents were elicited by 5 s preconditioning steps ranging from +30 to −80 mV, followed by a 500 ms pulse at −120 mV. (B,C) typical example of tail currents recorded in control conditions and during application of CmERG1, respectively. (D) Voltage dependence of activation. Normalized peak currents are plotted against the voltage of the preconditioning pulses in control conditions (black squares) and in the presence of 4 nM CmERG1 (grey squares). Black lines are the best fit obtained to a Boltzmann equation giving V1/2 for activation of −37.5 ± 1.4 mV and −34.8 ± 0.8 mV and slope of 6.0 ± 0.3 and 8 ± 0.7 for the control and in the presence of 4 nM CmERG1, respectively (mean ± SE and n = 5, analyzed by paired sample t-test at 0.05 level). (E) Stimulation used to study the voltage dependence of inactivation. Currents were elicited by a 1 s preconditioning pulse at 40 mV followed by depolarization steps ranging from −170 mV to 40 mV. Currents recorded at potentials lower than −90 mV were corrected for deactivation as shown in the inset of panel (F). The deactivation process was fitted by a single exponential (grey dash line) extrapolated to the zero point of the depolarization step, indicated by the arrow. (F,G) typical example of currents recorded in control conditions and in presence of 4 nM CmERG1 respectively. (H) Voltage dependence of inactivation. […] Black lines are the best fit obtained by a Boltzmann equation giving V1/2 for inactivation of −77.6 ± 3.6 mV and −79 ± 1.3 mV and slope of 28.2 ± 2.2 and 29 ± 1.5 for control conditions and in presence of 4 nM CmERG1, respectively (mean ± SE and n = 5, analyzed by paired sample t-test at 0.05 level).
# For steady state inactivation, tail currents were recorded during 500 ms depolarization steps from −170 to 40 mV, after a depolarization at 40 mV for 1 s (Figure 4E). Figure 4F,G show an example of currents recorded in the absence and in the presence of toxin. […]
# hERG1 channel [3] = target: T1, hERG1 channel; assay: Patch-clamp, voltage dependence of activation of hERG1; assay type: cell-based; conditions: 4 nM
# Description: To understand better the activity of CmERG1 on hERG1, we analyzed the voltage dependence of the activation and inactivation processes in presence or absence of CmERG1 at 4 nM, a concentration close to the IC50. For the activation, tail currents were elicited at −120 mV after 5 s preconditioning pulses from 30 to −80 mV (Figure 4A). Figure 4B,C illustrates typical currents recorded in the absence and in the presence of CmERG1. Tail currents were normalized, plotted versus preconditioning potentials, and fitted to a Boltzmann equation (Figure 4D). […]
# Figure 4 Effect of CmERG1 at 4 nM on the voltage dependence of activation and inactivation. […] (B,C) typical example of tail currents recorded in control conditions and during application of CmERG1, respectively. […] Black lines are the best fit obtained to a Boltzmann equation giving V1/2 for activation of −37.5 ± 1.4 mV and −34.8 ± 0.8 mV and slope of 6.0 ± 0.3 and 8 ± 0.7 for the control and in the presence of 4 nM CmERG1, respectively (mean ± SE and n = 5, analyzed by paired sample t-test at 0.05 level). […] Currents recorded at potentials lower than −90 mV were corrected for deactivation as shown in the inset of panel (F). […] (F,G) typical example of currents recorded in control conditions and in presence of 4 nM CmERG1 respectively. […]
# hERG1 channel [4] = target: T1, hERG1 channel; assay: Patch-clamp electrophysiology, block of hERG1 tail currents (dose-response) in CHO cells stably expressing hERG1; assay type: cell-based; conditions: for activity on hERG1 channels, in words (venom fraction screening / purified peptide): electrophysiology screening
# Description: CHO cells stably expressing hERG1 potassium channels were used for the electrophysiological experiments (hERG1 accession number: NP_000229). We previously prepared this cell line stably transfecting CHO cells with plasmid pcDNA3.1-hERG1 (a kind gift from Enzo Wanke from University of Milano-Bicocca, Italy). Briefly: CHO cells at 80% confluence in a 35 mm culture plate were transfected with 2 µg of pcDNA3.1-hERG1 mixed with 7 uL of Lipofectamine (Invitrogen), accordingly to the manufacturer instructions. After 3 days, cells were selected by adding to the culture medium 2 mg/mL of G418 (SIGMA). After 10 days of selection, cells were cloned by limiting dilution and the resulting clones were probed for their current expression by electrophysiological recordings. High glucose DMEM (Dulbecco’s Modified Eagle Medium, SIGMA, Naucalpan de Juarez, Edo de Mexico, Mexico), supplemented with 10% Fetal Bovine Serum (Biotecfron, Emiliano Zapata, Morelos, Mexico) and with 500 µg/mL of antibiotic G418 (SIGMA) was used as growth medium. Cells were routinely maintained at 37 °C with 5% of CO2 in humidified atmosphere.
# Intracellular solution contained in mM: 130 K-Aspartate, 10 NaCl, 2 MgCl2, 10 HEPES, 10 EGTA, pH 7.3 adjusted with NaOH. Extracellular solution contained in mM: 95 NaCl, 40 KCl, 2 CaCl2, 2 MgCl2, 10 HEPES, 5 glucose, pH 7.3 adjusted with NaOH. A concentrated 100–1000× stock was prepared dissolving lyophilized toxin in distilled water and stored at −20 °C until the used (no more than 3 weeks). Solutions were delivered to the cell under patch by means of an active perfusion system connected to a variable speed syringe pump (model A-99 from Razel Scientific Instruments (Saint Albans VT, USA)). The perfusion rate was approximately 1µL/s.
# Patch pipettes were manufactured from capillary borosilicate glass tubing (Warner Instruments, Hamden, CT, USA) by means of a vertical puller model P-30 (Sutter Instrument, Novato, CA, USA). When pipettes were filled with internal solution, pipette resistance was between 1.5–3 MOhm.
# During the depolarizing steps, hERG1 currents are usually small (Figure S1). This is a consequence of the slow activation kinetics (in seconds) and the very fast inactivation kinetics (in milliseconds) of this channel that can be considered an inward rectifier. Therefore, it is a common practice to record the tail currents during the hyperpolarization, where the inactivation is quickly removed and the deactivation occurs slowly. For the dose response curve (Figure 3), tail currents of hERG1 were recorded at −120 mV for 500 ms, after a preconditioning pulse at 60 mV for 500 ms every 5 s. Peak currents recorded in absence and in presence of the toxin were normalized to the maximal peak current in control condition and plotted versus the logarithm of toxin concentration. Data were fitted by a logistic equation. For the voltage dependence of activation study, hERG1 tail currents were recorded during a step at −120 mV for 500 ms, preceded by a 5 s depolarization steps in the range between 30 to −80 mV. To determine the voltage dependence of inactivation, currents were recorded after a depolarization at 40 mV for 1 s, during depolarization steps in the range between 40 to −170 mV. Currents recorded at potentials lower than −90 mV were corrected for deactivation: the deactivation process was fitted by a single exponential extrapolated to the zero point of each step. Data from both activation and inactivation protocols, in absence and in presence of the toxin, were normalized, plotted versus membrane potential, and fitted by a Boltzmann function.
# Currents were acquired by using MultiClamp 700A amplifier and DigiData 1440a (Molecular Devices, San Jose, CA, USA). Off-line analysis and graphs were performed by using Clampfit 10 (Molecular Devices) and Origin 8 (OriginLab, Northampton MA, USA).
# Where it is not otherwise indicated, electrophysiological data represent the mean of 3–6 cells ± standard error (S.E.). […]
# Kv1.3 channel = conditions: human peripheral T lymphocytes, ref [30] (ref [30],[31]), cited from earlier work
# Text: (§1) Until now, little is known about the C. margaritatus venom composition. […] Thereafter, in a proteomics study of C. margaritatus venom, two other peptides were isolated and characterized: a peptide with 24 amino acids and 3 disulfide bridges (MW = 2609.15 Da) and a peptide with 30 amino acids and 3 disulfide bridges (MW = 3376 Da), both cla ... || Despite the fact that the C. margaritatus scorpion belongs to the Buthidae […], its venom has been considered of low toxicity, but as mentioned above, in Colombia this species has caused a few cases of moderate and severe scorpionism.
# Kv1.1 channel = conditions: affinity compared with Kv1.3; ref [31] (ref [30],[31]); cited from earlier work
# Text: as §1
# Kv1.2 channel = conditions: affinity compared with Kv1.3; ref [31] (ref [30],[31]); cited from earlier work
# Text: as §1
substance,measurement,setting,value
BeKm-1,state dependence of channel-toxin interaction,[1],toxin binds preferentially to the closed channels while inactivation promotes toxin unbinding
"DRDSCVDKSRCAKYGYFQECTDCCKKYGHNGGTCMFFKCKCA (disulfide 5-23, 11-34, 20-39, 24-41) [CmERG1]",slope of voltage dependence of inactivation in presence of toxin,"hERG1 channel [2]; Boltzmann fit, control 28.2 ± 2.2, mean ± SE",29 ± 1.5
same,V1/2 for inactivation in presence of toxin,"hERG1 channel [2]; Boltzmann fit, control −77.6 ± 3.6 mV, mean ± SE",−79 ± 1.3 mV
same,"effect on voltage dependence of steady state inactivation, in words",hERG1 channel [2]; paired sample t-test at 0.05 level,does not induce significant changes on the voltage dependence of inactivation; also recorded: no modification of the steady state inactivation
same,V1/2 for activation (potential of half activation) in presence of toxin,"hERG1 channel [3]; Boltzmann fit, control −37.5 ± 1.4 mV, mean ± SE, n = 4 or n = 5, paired t-test",-34.8 ± 0.8 mV
same,"effect on total current / voltage dependence of activation, in words","hERG1 channel [3]; n = 4, paired sample t-test at 0.05 level",reduces the total current with a tendency to modify the potential of half activation
same,slope of dose-response curve (logistic equation),"hERG1 channel [4]; CHO cells stably expressing hERG1, 1 nM to 1 µM, tail currents at −120 mV",1.1 ± 0.05
same,IC50,"hERG1 channel [4]; CHO cells stably expressing hERG1, tail currents at −120 mV after preconditioning at 60 mV for 500 ms every 5 s, 1 nM to 1 µM, logistic fit, mean ± S.E., n = 3-6 cells per concentration, read-out: IC50, inhibition of hERG1 currents",3.4 ± 0.2 nM
same,onset and reversibility of block,"hERG1 channel [4]; CHO-hERG1 patch clamp, application at 1 µM and washout, pulses every 5 s",blocks channels in a fast and reversible manner
same,"block of hERG1 current, in words","hERG1 channel [4]; CHO-hERG1 patch clamp, highest concentration 1 µM (n = 3)",completely blocks hERG1 current; also recorded: able to almost completely block the channels; also recorded: full blocking
same,block of hERG1 current,"hERG1 channel [4]; CHO-hERG1 patch clamp, maximal block",100%
same,effect on kinetics of the closing (deactivation) process,"hERG1 channel [4]; CHO-hERG1 patch clamp, representative currents at 300 nM and 3 nM",does not accelerate the kinetics of the closing process; also recorded: absence of deactivation process acceleration
same,difference in efficiency at a total block of current between CmERG1 and CnERG1,hERG1 channel [4]; CmERG1 versus CnERG1,10%
same,"activity on hERG1 channels, in words (venom fraction screening / purified peptide)",hERG1 channel [4],active on hERG1
same,"activity on hERG1 channels, in words (venom fraction screening / purified peptide)",hERG1 channel [4]; listed as peptide corresponding to 4792.88 Da,confirmed the activity of this peptide against hERG1
Margatoxin,"inhibition of Kv1.3, in words",Kv1.3 channel,potent and specific blocker
same,"inhibition of Kv1.3, in words",Kv1.3 channel; listed as Margatoxin 1,potent inhibitor
same,"inhibition of Kv1.1, in words",Kv1.1 channel,block also Kv1.1
same,"inhibition of Kv1.2, in words",Kv1.2 channel,block also Kv1.1 and Kv 1.2
